These results are taken from ChEMBL document CHEMBL1159173, “Investigation of side-chain sar, formulation and injection site toleration of pyrazolo[3,4-f]quinoline derivatives: a potent series of in vivo active immunostimulants” (Bioorg Med Chem Lett, 1993).

Structures are written as SMILES.

The species named for data set [1] is Mus musculus. Nature of the data set: Minimum effective dose for immunostimulant activity in mice was determined. Type of data set: functional. To be noted: read-out: MED.
Data set [2] can be described thus: Solubility was determined. The format is physicochemical.
For data set [3], the species on record is Mus musculus. Nature of the data set: Minimum effective dose for immunostimulant activity in mice was determined; Toxic. The format is functional, organism-based.

As a reminder, the solubility is how much of the substance goes into solution per volume. Low readings indicate little dissolved substance, high ones much dissolved substance.

Consider `COc1ccc(Nc2cc(C)nc3ccc4c[nH]nc4c23)cc1`, for which, in the data set filed under Mus musculus [1], the minimal effective dose is 16.7 mg/kg. `c1cc(NC2CCCCC2)c2c(ccc3c[nH]nc32)n1` had a solubility in data set [2] of at least 25000 µg/mL. In the data set filed under Mus musculus [3], the MED entry was “Toxic”. For the molecule `Cc1cc(Nc2ccc(O)cc2)c2c(ccc3c[nH]nc32)n1`, the minimal effective dose in the data set filed under Mus musculus [1] came out at 16.7 mg/kg.

As to `CCCCOc1ccc(Nc2ccnc3ccc4c[nH]nc4c23)cc1`, the solubility in data set [2] was above 6000 µg/mL. Moreover, in the data set listed under Mus musculus [1], the minimal effective dose is 3.13 mg/kg. For `Clc1ccc(Nc2ccnc3ccc4c[nH]nc4c23)cc1`, in data set [2], the solubility was below 6000 µg/mL. Besides, in the data set filed under Mus musculus [1], the minimal effective dose was 12.5 mg/kg.

`CCCCOc1ccc(Nc2cc(C)nc3ccc4c[nH]nc4c23)cc1` had a solubility in data set [2] below 6000 µg/mL. Further, in the data set listed under Mus musculus [1], the minimal effective dose came to 1.85 mg/kg. Turning to `Cc1ccc(Nc2cc(C)nc3ccc4c[nH]nc4c23)cc1`, the solubility in data set [2] is below 6000 µg/mL. Besides, in the data set filed under Mus musculus [1], the minimal effective dose came out at 6.25 mg/kg. Turning to `c1cc(Nc2ccc(OCC3CCCCC3)cc2)c2c(ccc3c[nH]nc32)n1`, in data set [2], the solubility was below 6000 µg/mL. For the same molecule, the minimal effective dose in the data set listed under Mus musculus [1] was 0.62 mg/kg. In data set [2], `CCc1ccc(Nc2cc(C)nc3ccc4c[nH]nc4c23)cc1` gave a solubility above 6000 µg/mL. For the same molecule, the minimal effective dose in the data set listed under Mus musculus [1] worked out at 12.5 mg/kg. For `Cc1cc(Nc2ccc(Cl)cc2)c2c(ccc3c[nH]nc32)n1`, the solubility in data set [2] was below 6000 µg/mL. In the data set listed under Mus musculus [1], the minimal effective dose turned out to be 1.85 mg/kg.

For `CCCCc1ccc(Nc2ccnc3ccc4c[nH]nc4c23)cc1`, the solubility in data set [2] is above 6000 µg/mL. In the data set listed under Mus musculus [1], the minimal effective dose was found to be 6.25 mg/kg. `Cc1cc(Nc2ccc(OCc3ccccc3)cc2)c2c(ccc3c[nH]nc32)n1`: in data set [2], the solubility is below 6000 µg/mL. For the same molecule, in the data set listed under Mus musculus [1], the minimal effective dose was 0.62 mg/kg. In data set [2], `Cc1cc(Nc2ccc(OCC3CCCCC3)cc2)c2c(ccc3c[nH]nc32)n1` yielded a solubility below 6000 µg/mL. Moreover, the minimal effective dose in the data set listed under Mus musculus [1] was determined as 0.62 mg/kg. The molecule `Cc1cc(NC2CCCCC2)c2c(ccc3c[nH]nc32)n1` showed a solubility in data set [2] of at least 25000 µg/mL. Further, in the data set filed under Mus musculus [1], the minimal effective dose was determined as 1.85 mg/kg. For the molecule `Cc1cc(Nc2cccnc2)c2c(ccc3c[nH]nc32)n1`, the minimal effective dose in the data set listed under Mus musculus [1] was above 50 mg/kg.

Regarding `CCCc1ccc(Nc2cc(C)nc3ccc4c[nH]nc4c23)cc1`, in data set [2], the solubility was above 6000 µg/mL. Besides, the minimal effective dose in the data set listed under Mus musculus [1] stood at 6.25 mg/kg.

As for `Cc1cc(Nc2ccc(SCC(=O)O)cc2)c2c(ccc3c[nH]nc32)n1`, the minimal effective dose in the data set listed under Mus musculus [1] was above 50 mg/kg.
